Source: article PMC9919951, “Ellagic Acid and Its Metabolites as Potent and Selective Allosteric Inhibitors of Liver Pyruvate Kinase” (Nutrients, 2023)
“Also recorded” adds a separate entry of the source.

Assays:
PKL = target: T1, PKL (Homo sapiens, UniProt P30613); experiment: In vitro pyruvate kinase assay (Kinase-Glo Max luminescence), PKL; type: biochemical; details: for PKL IC50: 0.1 mM ADP, 0.125 mM PEP, rt 30 min, Inactive = less than 30% inhibition at 10 µM; for Change of PKL inhibitory activity relative to Uro D (5): removal of one hydroxyl group from 5
T1 construct: purchased BPS Bioscience
T1 sequence (P30613 1-543 isoform P30613-2): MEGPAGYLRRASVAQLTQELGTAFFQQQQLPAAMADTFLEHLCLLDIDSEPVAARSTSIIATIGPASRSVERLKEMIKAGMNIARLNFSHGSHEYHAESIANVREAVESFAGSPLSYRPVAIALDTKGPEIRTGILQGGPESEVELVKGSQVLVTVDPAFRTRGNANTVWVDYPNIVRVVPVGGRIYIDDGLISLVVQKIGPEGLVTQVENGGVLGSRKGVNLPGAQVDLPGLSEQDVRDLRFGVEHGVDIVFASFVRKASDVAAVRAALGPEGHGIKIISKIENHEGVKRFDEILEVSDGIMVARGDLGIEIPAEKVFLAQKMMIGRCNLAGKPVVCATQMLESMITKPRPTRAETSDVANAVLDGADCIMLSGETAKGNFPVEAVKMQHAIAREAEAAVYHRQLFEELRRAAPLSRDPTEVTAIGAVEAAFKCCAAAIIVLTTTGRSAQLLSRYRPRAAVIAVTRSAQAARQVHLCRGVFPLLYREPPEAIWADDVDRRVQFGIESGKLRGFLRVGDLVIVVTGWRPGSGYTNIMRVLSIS
Excerpt: (§1) In the absence of the compound, the intensity (Ce) in each data set was defined as 100% activity.

PKR = target: T2, PKR (Homo sapiens, UniProt P30613); experiment: In vitro pyruvate kinase assay (Kinase-Glo Max luminescence), PKR; type: biochemical; details: for PKR IC50: 0.1 mM ADP, 0.125 mM PEP, rt 30 min, Inactive = less than 30% inhibition at 10 µM
T2 construct: purchased BPS Bioscience
T2 sequence (P30613 whole entry): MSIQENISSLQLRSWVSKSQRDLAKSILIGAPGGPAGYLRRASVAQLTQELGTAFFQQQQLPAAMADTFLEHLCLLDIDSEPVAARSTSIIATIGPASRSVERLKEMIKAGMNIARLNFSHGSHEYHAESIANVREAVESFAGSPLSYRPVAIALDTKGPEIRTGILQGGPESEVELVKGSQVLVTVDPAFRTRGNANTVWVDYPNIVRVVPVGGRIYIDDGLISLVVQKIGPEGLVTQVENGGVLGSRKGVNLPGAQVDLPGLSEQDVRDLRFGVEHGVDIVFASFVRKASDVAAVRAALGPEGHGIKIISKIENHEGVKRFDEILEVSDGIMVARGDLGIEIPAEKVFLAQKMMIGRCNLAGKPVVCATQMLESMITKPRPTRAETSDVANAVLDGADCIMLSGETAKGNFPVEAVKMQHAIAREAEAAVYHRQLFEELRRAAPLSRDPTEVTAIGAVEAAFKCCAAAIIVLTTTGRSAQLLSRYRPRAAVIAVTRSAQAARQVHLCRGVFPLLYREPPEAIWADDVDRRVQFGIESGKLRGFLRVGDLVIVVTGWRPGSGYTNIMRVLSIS
Excerpt: as §1

PKM1 = PKM1 (Homo sapiens, UniProt P14618); experiment: In vitro pyruvate kinase assay, PKM1; type: biochemical
Chain of PKM1 (P14618 1-531 isoform P14618-2): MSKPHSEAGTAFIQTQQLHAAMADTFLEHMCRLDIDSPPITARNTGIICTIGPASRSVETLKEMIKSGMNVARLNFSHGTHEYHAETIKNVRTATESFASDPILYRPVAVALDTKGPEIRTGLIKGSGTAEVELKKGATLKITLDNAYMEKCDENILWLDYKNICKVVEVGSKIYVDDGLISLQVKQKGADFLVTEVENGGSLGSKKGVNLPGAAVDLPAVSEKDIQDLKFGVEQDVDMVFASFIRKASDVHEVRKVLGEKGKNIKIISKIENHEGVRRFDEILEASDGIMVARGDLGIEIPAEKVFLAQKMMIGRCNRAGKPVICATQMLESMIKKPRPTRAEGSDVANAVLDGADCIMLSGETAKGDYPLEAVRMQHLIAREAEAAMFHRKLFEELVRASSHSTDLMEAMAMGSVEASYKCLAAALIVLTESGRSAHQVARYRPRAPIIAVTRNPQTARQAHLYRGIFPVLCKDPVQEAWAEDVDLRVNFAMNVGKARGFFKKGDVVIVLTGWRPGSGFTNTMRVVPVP
Excerpt: as §1

PKM2 = PKM2 (Homo sapiens, UniProt P14618); experiment: In vitro pyruvate kinase assay, PKM2; type: biochemical; details: printed in the PKM2 IC50 column; footnote a: value refers to EC50; read-out: PKM2 EC50 (compound behaves as an activator)
Chain of PKM2 (P14618 whole entry): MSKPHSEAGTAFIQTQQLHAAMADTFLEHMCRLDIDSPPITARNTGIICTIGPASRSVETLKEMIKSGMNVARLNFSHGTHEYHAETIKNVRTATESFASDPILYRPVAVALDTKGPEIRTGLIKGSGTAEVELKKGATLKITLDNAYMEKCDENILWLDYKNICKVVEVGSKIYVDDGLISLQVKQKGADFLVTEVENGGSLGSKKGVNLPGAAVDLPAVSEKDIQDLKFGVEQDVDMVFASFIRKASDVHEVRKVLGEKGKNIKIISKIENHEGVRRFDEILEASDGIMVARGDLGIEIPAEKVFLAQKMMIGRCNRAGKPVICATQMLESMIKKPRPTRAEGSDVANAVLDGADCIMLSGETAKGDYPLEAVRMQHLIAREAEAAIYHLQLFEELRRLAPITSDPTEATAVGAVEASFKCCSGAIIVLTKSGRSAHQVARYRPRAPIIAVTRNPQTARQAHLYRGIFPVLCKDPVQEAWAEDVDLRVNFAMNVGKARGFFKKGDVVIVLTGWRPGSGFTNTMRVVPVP
Excerpt: as §1

Compound O=c1oc2c(O)c(O)ccc2c2cc(O)ccc12 [Compound 14, 3,4,9-Trihydroxy-6H-benzo[c]chromen-6-one] has an IC50 (PKL) of 2.1 µM and an IC50 (PKR) of 68 µM.
For O=c1oc2cc(O)ccc2c2ccc(O)cc12 [Compound 11, Urolithin A], the “PKL IC50” value (PKL) was “no inhibition was observed; also recorded: Inactive ^b” and the “PKR IC50” value (PKR) was “Inactive ^b”.
With O=c1ccc2ccc(O)c(O)c2o1 [Compound 7] the “PKL IC50” value (PKL) was “Inactive ^b” and the “PKR IC50” value (PKR) was “Inactive ^b”.
With O=c1oc2c(O)cccc2c2cc(O)c(O)cc12 [Compound 13, 4,8,9-Trihydroxy-6H-benzo[c]chromen-6-one] the IC50 (PKL) was 3.9 µM, the “Change of PKL inhibitory activity relative to Uro D (5)” value (PKL) was “hundred-fold reduction in activity” and the IC50 (PKR) was 43 µM. For the same compound, the melting point was 345 to 347 °C.
In the case of O=c1oc2cc(O)ccc2c2ccccc12 [Compound 12, Urolithin B], the “PKL IC50” value (PKL) is reported as “no inhibition was observed; also recorded: Inactive ^b” and the “PKR IC50” value (PKR) is reported as “Inactive ^b”.
In the case of O=c1cc(-c2ccc(O)c(O)c2)oc2cc(O)cc(O)c12 [Compound 2, luteolin], the IC50 (PKL) is reported as 12 µM and the IC50 (PKR) is reported as greater than 100 µM.
With O=c1oc2c(O)c(O)cc3c(=O)oc4c(O)c(O)cc1c4c23 [Compound 1, ellagic acid] the IC50 (PKL) was 0.032 µM, the “Mode of PKL inhibition” value (PKL; different concentrations of ADP, activity independent of substrate concentration) was “non-competitive allosteric inhibitor” and the IC50 (PKR) was 4.7 µM. For the same compound, the IC50 (PKM1) was 81 µM and the EC50 (PKM2) was 0.07 µM.
Compound Oc1ccc(-c2ccc(O)c(O)c2)cc1O [Compound 9, [1,1’-biphenyl]-3,3’,4,4’-tetraol] has an IC50 (PKL) of 2.4 µM and an IC50 (PKR) of 5.1 µM.
For O=c1oc2c(O)c(O)ccc2c2ccc(O)cc12 [Compound 15, 3,4,8-Trihydroxy-6H-benzo[c]chromen-6-one], the IC50 (PKL) was 1.7 µM, the “Change of PKL inhibitory activity relative to Uro D (5)” value (PKL) was “dramatically reduced inhibitory activity” and the IC50 (PKR) was greater than 100 µM.
Compound Oc1ccc(-c2ccc(O)c(O)c2O)c(O)c1O [Compound 8, [1,1’-Biphenyl]-2,2’,3,3’,4,4’-hexaol] has an IC50 (PKL) of 3.5 µM, an IC50 (PKR) of 12 µM and a melting point greater than 350 °C.
In the case of O=C(COP(=O)(O)O)[C@@H](O)[C@H](O)[C@H](O)COP(=O)(O)O [FBP, Fructose-1,6-biphosphate, reference compound], the EC50 (PKL; printed in the PKL IC50 column, footnote a: value refers to EC50, read-out: PKL EC50 (compound behaves as an activator)) is reported as 0.02 µM, the EC50 (PKR; printed in the PKR IC50 column, footnote a: value refers to EC50, read-out: PKR EC50 (compound behaves as an activator)) is reported as 0.01 µM and the “PKM1 IC50” value (PKM1) is reported as “Inactive”. It also gave an EC50 (PKM2) of 0.05 µM.
For O=c1occc2cc(O)c(O)cc12 [Compound 6, 6,7-dihydroxy-1H-isochromen-1-one], the “PKL IC50” value (PKL) was “Inactive ^b”, the “PKR IC50” value (PKR) was “Inactive ^b” and the melting point was 265 to 267 °C.
In the case of O=c1oc2cc(O)ccc2c2cc(O)c(O)cc12 [Compound 10, 3,8,9-trihydroxy-6H-benzo[c]chromen-6-one], the IC50 (PKL) is reported as 0.41 µM, the “Change of PKL inhibitory activity relative to Uro D (5)” value (PKL) is reported as “reduced by approximately one order of magnitude” and the IC50 (PKR) is reported as 2.6 µM.
With Oc1cc(O)c2cc(O)c(-c3ccc(O)c(O)c3)[o+]c2c1 [Compound 3, cyanidin] the IC50 (PKL) was 2.1 µM and the IC50 (PKR) was 7.4 µM.
O=c1oc2c(O)c(O)ccc2c2cc(O)c(O)cc12 [Compound 5, urolithin D] gave an IC50 (PKL) of 0.028 µM, an IC50 (PKR) of 1.27 µM and an IC50 (PKM1) of 36 µM. For the same compound, the EC50 (PKM2) was 0.03 µM.
